Experimental data reported in patent publication US20260062382A1, “CRYSTALLINE FORMS OF TROFINETIDE” (ACADIA Pharmaceuticals Inc., priority 2021, published 2026).
Where a SMILES comes first, the peptide text is derived from it. [ ]: non-standard residue; d: D form. αMeP = C[C@@]1(C(=O)O)CCCN1

What was measured:
Assay type in all cases: physicochemical
[1] = Stability under humidity conditions (two days exposure, XRPD / water content)
[2] = Dynamic vapor sorption-desorption (DVS) analysis
Protocol: DVS analysis was carried out TA Instruments Q5000 Dynamic Vapor Sorption analyzer. The instrument was calibrated with standard weights and a sodium bromide standard for humidity. Samples were analyzed at 25° C. with a maximum equilibration time of 60 minutes in 10% relative humidity (RH) steps from 5 to 95% RH (adsorption cycle) and from 95 to 5% RH (desorption cycle). Form A is non-hygroscopic.

[3] = Long-term (6 month) chemical stability, total impurities by HPLC; conditions: for Total Impurities: 25 ± 2° C./60 ± 5% RH
Protocol: The long-term (6 month) chemical stability of Form A and amorphous trofinetide were tested under the same conditions: 25±2° C./60±5% relative humidity (RH). […] [table]

Question: Which results are given for `C[C@@]1(C(=O)N[C@@H](CCC(=O)O)C(=O)O)CCCN1C(=O)CN` [Form A, (2S)-2-[[(2S)-1-(2-aminoacetyl)-2-methylpyrrolidine-2-carbonyl]amino]pentanedioic acid] (H-Gly-[αMeP]-Glu-OH)?
Answer: Stability under humidity conditions ([1]; large range of humidity conditions): stable under a large range of humidity conditions; Solid form change under extreme dry conditions (XRPD) ([1]; open container exposed under 0% RH for two days): lost the water and became disordered; Hygroscopicity ([2]; 25° C.): non-hygroscopic; Solid form after DVS by XRPD ([2]; after DVS): remained as trofinetide Form A; Moisture uptake (adsorption cycle) ([2]; exposed from 5% RH to 95% RH): little moisture uptake; Moisture loss (desorption cycle) ([2]; exposed from 95% RH to 5% RH): little moisture loss; Long-term chemical stability compared with amorphous trofinetide ([3]; 6 month, 25±2° C./60±5% RH): more stable than amorphous trofinetide; Total Impurities ([3]; 1 month): 0.0%; Total Impurities ([3]; 3 months): 0.03%; Total Impurities ([3]; 6 months): <PLOQ; Total Impurities ([3]; Initial): <PLOQ

Question: With `C[C@@]1(C(=O)N[C@@H](CCC(=O)O)C(=O)O)CCCN1C(=O)CN` [amorphous trofinetide (Batch 1), glycyl-L-2-methylprolyl-L-glutamic acid] (H-Gly-[αMeP]-Glu-OH) as the compound, how does the “Total Impurities” value ([3]; 1 month) read?
Answer: Its value is 0.3%.

Question: And the “Total Impurities” value ([3]; 3 months)?
Answer: The value was 0.8%.

Question: What about the “Total Impurities” value ([3]; 6 months) of the same compound?
Answer: Its value is 1.0%.

Question: And the “Total Impurities” value ([3]; Initial)?
Answer: Its value is 0.3%.

Question: With `C[C@@]1(C(=O)N[C@@H](CCC(=O)O)C(=O)O)CCCN1C(=O)CN` [amorphous trofinetide (Batch 2), glycyl-L-2-methylprolyl-L-glutamic acid] (H-Gly-[αMeP]-Glu-OH) as the compound, how does the “Total Impurities” value ([3]; 3 months) read?
Answer: The value was 0.6%.

Question: What about the “Total Impurities” value ([3]; 6 months) of the same compound?
Answer: Its value is 0.9%.

Question: What about the “Total Impurities” value ([3]; Initial) of the same compound?
Answer: Its value is 0.2%.

Question: What does the source list for `C[C@@]1(C(=O)N[C@@H](CCC(=O)O)C(=O)O)CCCN1C(=O)CN` [amorphous trofinetide (Batch 3), glycyl-L-2-methylprolyl-L-glutamic acid] (H-Gly-[αMeP]-Glu-OH)?
Answer: Total Impurities ([3]; 1 month): 0.2%; Total Impurities ([3]; 3 months): 0.6%; Total Impurities ([3]; 6 months): 0.8%; Total Impurities ([3]; Initial): 0.2%
